Values quoted from earlier work as cited in patent US20110230564A1, “ANT4 INHIBITOR COMPOUNDS AND METHODS OF USE THEREOF” (priority 2008, published 2011).

Test system: sperm
Conditions: 50 μM

For `CO[C@H](C/C=C\C=C\CC/C=C/C[C@H](C)/C=C/C(=C\C(=O)O)CC(=O)O)/C(C)=C\C=C(/C)C(=O)O` [Bongkrekic acid], the sperm motility is given as “almost completely immotile”.
